Source: US20250346593A1, “IMIDAZO(1,2-1)PYRIDINE DERIVATIVES AS RIPK2 INHIBITORS” (Interline Therapeutics, Inc., priority 2022, published 2025)
Where two headings read alike, the source gives them in different places.

Tests used:
[1] = test system: NF-κB pathway (SEAP) in THP1-Dual cells; test: THP-1 Dual cell SEAP assay (L18-MDP stimulated); assay type: cell-based; details: Homo sapiens, THP1-Dual, read-out: NFkB THP1 IC50
[2] = target: GST-RIPK2 fusion protein (human RIPK2 amino acids 1-310) (Homo sapiens (Human), UniProt O43353); test: RIPK2 binding competition assay (TR-FRET, Tracer 199)
[3] = read-out: RIPK2 IC50, RIPK2 binding competition assay

GST-RIPK2 fusion protein (human RIPK2 amino acids 1-310), sequence (O43353 1-310): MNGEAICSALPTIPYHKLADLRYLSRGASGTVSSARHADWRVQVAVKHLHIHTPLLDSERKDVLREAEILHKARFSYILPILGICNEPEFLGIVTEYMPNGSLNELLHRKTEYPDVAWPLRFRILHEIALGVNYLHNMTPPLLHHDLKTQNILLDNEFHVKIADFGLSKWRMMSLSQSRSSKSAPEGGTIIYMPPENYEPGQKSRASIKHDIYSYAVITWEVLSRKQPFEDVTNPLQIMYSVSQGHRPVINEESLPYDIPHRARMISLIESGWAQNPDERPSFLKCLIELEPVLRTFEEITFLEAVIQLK

Row | Compound | IC50 [1] [nM] | IC50 [2, 3] [nM] | IC50 [2] [nM]
1 | COc1cc2ncc(-c3cc(F)c(N)nc3F)n2cc1S(=O)(=O)C(C)(C)CF [Example 123, 3,6-difluoro-5-[5-(2-fluoro-1,1-dimethylethylsulfonyl)-6-methoxy-1,3a-diaza-3-indenyl]-2-pyridylamine] | > 1000 | > 20 | –
2 | CCCS(=O)(=O)Nc1cc(-c2cnc3cc(OC)c(S(=O)(=O)C(C)(C)C)cn23)cn(C)c1=O [Example 124, N-(5-(6-(tert-butylsulfonyl)-7-methoxyimidazo[1,2-a]pyridin-3-yl)-1-methyl-2-oxo-1,2-dihydropyridin-3-yl)propane-1-sulfonamide] | > 1000 | – | 2.5 to 20
3 | COc1cc2ncc(-c3cc(NCCCO)c(=O)n(C)c3)n2cc1S(=O)(=O)C(C)(C)C [Example 125, 5-(6-(tert-butylsulfonyl)-7-methoxyimidazo[1,2-a]pyridin-3-yl)-3-((3-hydroxypropyl)amino)-1-methylpyridin-2(1H)-one] | 50 to 250 | – | 2.5 to 20
4 | COc1cc(N)cc(-c2cnc3cc(OC)c(S(=O)(=O)C(C)(C)C)cn23)n1 [Example 126, 2-(6-(tert-butylsulfonyl)-7-methoxyimidazo[1,2-a]pyridin-3-yl)-6-methoxypyridin-4-amine] | > 1000 | > 20 | –
5 | COc1cc2ncc(-c3ccc(F)c(N)c3)n2cc1S(=O)(=O)C(C)(C)C [Example 127, 5-(6-(tert-butylsulfonyl)-7-methoxyimidazo[1,2-a]pyridin-3-yl)-2-fluoroaniline] | > 1000 | > 20 | –
6 | COc1cc2ncc(-c3cnc(N)c(N)n3)n2cc1S(=O)(=O)C(C)(C)C [Example 128, 5-(6-(tert-butylsulfonyl)-7-methoxyimidazo[1,2-a]pyridin-3-yl)pyrazine-2,3-diamine] | > 1000 | > 20 | –
7 | COc1cc2ncc(-c3cc(F)nc(OCCCO)c3)n2cc1S(=O)(=O)C(C)(C)C [Example 129, 3-({6-fluoro-4-[7-methoxy-6-(2-methylpropane-2-sulfonyl)imidazo[1,2-a]pyridin-3-yl]pyridin-2-yl}oxy)propan-1-ol] | > 1000 | > 20 | –
8 | CCCS(=O)(=O)Nc1cc(-c2cnc3cc(OC)c(S(=O)(=O)C(C)(C)C)cn23)ccc1OC [Example 130, N-{2-methoxy-5-[7-methoxy-6-(2-methylpropane-2-sulfonyl)imidazo[1,2-a]pyridin-3-yl]phenyl}propane-1-sulfonamide] | 250 to 1000 | – | 1 to 2.5
9 | CCCS(=O)(=O)Nc1cc(OC)cc(-c2cnc3cc(OC)c(S(=O)(=O)C(C)(C)C)cn23)c1 [Example 131, N-{3-methoxy-5-[7-methoxy-6-(2-methylpropane-2-sulfonyl)imidazo[1,2-a]pyridin-3-yl]phenyl}propane-1-sulfonamide] | < 50 | < 1 | –
10 | CCCS(=O)(=O)Nc1cc(OC)cc(-c2cnc3cc(OCC)c(S(=O)(=O)C(C)C)cn23)c1 [Example 132, N-{3-[7-ethoxy-6-(propane-2-sulfonyl)imidazo[1,2-a]pyridin-3-yl]-5-methoxyphenyl}propane-1-sulfonamide] | 50 to 250 | < 1 | –
11 | CCCS(=O)(=O)Nc1cc(-c2cnc3cc(OCC)c(S(=O)(=O)C(C)C)cn23)ccc1OC [Example 133, N-{5-[7-ethoxy-6-(propane-2-sulfonyl)imidazo[1,2-a]pyridin-3-yl]-2-methoxyphenyl}propane-1-sulfonamide] | 250 to 1000 | – | 2.5 to 20
12 | CCCS(=O)(=O)Nc1cc(-c2cnc3cc(OC)c(S(=O)(=O)C(C)(C)C)cn23)ccc1OC(F)(F)F [Example 134, N-{5-[7-methoxy-6-(2-methylpropane-2-sulfonyl)imidazo[1,2-a]pyridin-3-yl]-2-(trifluoromethoxy)phenyl}propane-1-sulfonamide] | 250 to 1000 | – | 2.5 to 20
13 | CCCS(=O)(=O)Nc1cc(OC(F)(F)F)cc(-c2cnc3cc(OC)c(S(=O)(=O)C(C)(C)C)cn23)c1 [Example 135, N-{3-[7-methoxy-6-(2-methylpropane-2-sulfonyl)imidazo[1,2-a]pyridin-3-yl]-5-(trifluoromethoxy)phenyl}propane-1-sulfonamide] | > 1000 | – | 2.5 to 20
14 | CCCS(=O)(=O)Nc1cc(-c2cnc3cc(OC)c(S(=O)(=O)C(C)(C)C)cn23)cc(OC)c1C [Example 136, N-(5-(6-(tert-Butylsulfonyl)-7-methoxyimidazo[1,2-a]pyridin-3-yl)-3-methoxy-2-methylphenyl)propane-1-sulfonamide] | > 1000 | – | 2.5 to 20
15 | CCCS(=O)(=O)Nc1cc(-c2cnc3cc(OC)c(C(=O)N(C)C)cn23)cc(OC)c1OC [Example 137, 3-[3,4-dimethoxy-5-(propane-1-sulfonamido)phenyl]-7-methoxy-N,N-dimethylimidazo[1,2-a]pyridine-6-carboxamide] | 250 to 1000 | – | 2.5 to 20
16 | CCCS(=O)(=O)Nc1cc(-c2cnc3cc(OC)c(S(=O)(=O)C(C)(C)C)cn23)cc(OC(F)(F)F)c1F [Example 138, N-{2-fluoro-5-[7-methoxy-6-(2-methylpropane-2-sulfonyl)imidazo[1,2-a]pyridin-3-yl]-3-(trifluoromethoxy)phenyl}propane-1-sulfonamide] | > 1000 | > 20 | –

Row | Compound | IC50 [1] [nM] | IC50 [2, 3] [nM] | IC50 [2] [nM]
17 | CCCS(=O)(=O)Nc1cc(-c2cnn3ccc(S(=O)(=O)C(C)(C)C)cc23)cc(OC)c1OC [Example 139, N-(5-(5-(tert-butylsulfonyl)pyrazolo [1,5-a]pyridin-3-yl)-2,3-dimethoxyphenyl) propane-1-sulfonamide] | 50 to 250 | – | 1 to 2.5
18 | CCCS(=O)(=O)Nc1cc(-c2cnn3cc(OC)c(S(=O)(=O)C(C)(C)C)cc23)cc(OC)c1OC [Example 140, N-(5-(5-(tert-butylsulfonyl)-6-methoxypyrazolo[1,5-a]pyridin-3-yl)-2,3-dimethoxyphenyl) propane-1-sulfonamide] | < 50 | < 1 | –
19 | COc1cn2ncc(-c3cc(NS(C)(=O)=O)c(OC)c(OC)c3)c2cc1S(=O)(=O)C(C)(C)C [Example 141, N-(5-(5-(tert-butylsulfonyl)-6-methoxypyrazolo[1,5-a]pyridin-3-yl)-2,3-dimethoxyphenyl) methanesulfonamide] | 50 to 250 | – | 1 to 2.5
20 | COc1cc2ncc(-c3ccc(N)c(OC(F)F)c3)n2cc1S(=O)(=O)C(C)(C)C [Example 142, 4-(6-(tert-butylsulfonyl)-7-methoxyimidazo[1,2-a]pyridin-3-yl)-2-(difluoromethoxy)aniline] | 250 to 1000 | – | 2.5 to 20
21 | CCc1ccc(-c2cnc3cc(OC)c(S(=O)(=O)C(C)(C)C)cn23)cc1NS(C)(=O)=O [Example 143, N-(5-(6-(tert-butylsulfonyl)-7-methoxyimidazo[1,2-a]pyridin-3-yl)-2-ethylphenyl) methanesulfonamide] | > 1000 | – | 2.5 to 20
22 | CCCS(=O)(=O)Nc1cc(-c2cnc3ccccn23)cc(F)c1OC [Example 144, N-(3-fluoro-5-(imidazo[1,2-a]pyridin-3-yl)-2-methoxyphenyl) propane-1-sulfonamide] | > 1000 | > 20 | –
23 | CCCS(=O)(=O)Nc1cc(-c2cnc3cc(OC)c(S(=O)(=O)C(C)(C)C)cn23)cc(OC(F)F)n1 [Example 145, N-(4-(6-(tert-butylsulfonyl)-7-methoxyimidazo[1,2-a]pyridin-3-yl)-6-(difluoromethoxy)pyridin-2-yl)propane-1-sulfonamide] | 250 to 1000 | – | 1 to 2.5
24 | CCCS(=O)(=O)Nc1cc(-c2cnc3cc(OC)c(C(C)(C)O)cn23)cc(F)c1OC [Example 146, N-(3-fluoro-5-(6-(2-hydroxypropan-2-yl)-7-methoxyimidazo[1,2-a]pyridin-3-yl)-2-methoxyphenyl)propane-1-sulfonamide] | 50 to 250 | – | 1 to 2.5
25 | COc1cc2ncc(-c3cc(F)c(OCc4ccccc4)c(NS(C)(=O)=O)c3)n2cc1S(=O)(=O)C(C)(C)C [Example 147, N-(2-(benzyloxy)-5-(6-(tert-butylsulfonyl)-7-methoxyimidazo[1,2-a]pyridin-3-yl)-3-fluorophenyl) methanesulfonamide] | > 1000 | – | > 20
26 | COc1cc2ncc(-c3ccc(NS(C)(=O)=O)nc3)n2cc1S(=O)(=O)C(C)(C)C [Example 148, N-(5-(6-(tert-butylsulfonyl)-7-methoxyimidazo[1,2-a]pyridin-3-yl)pyridin-2-yl)methanesulfonamide] | > 1000 | > 20 | –
27 | COc1cc2ncc(-c3ccc(O)nc3)n2cc1S(=O)(=O)C(C)(C)C [Example 150, 5-(6-(tert-butylsulfonyl)-7-methoxyimidazo[1,2-a]pyridin-3-yl)pyridin-2-ol] | > 1000 | > 20 | –
28 | COc1cc2ncc(-c3cccc(S(C)(=O)=O)c3)n2cc1S(=O)(=O)C(C)(C)C [Example 151, 6-(tert-butylsulfonyl)-7-methoxy-3-(3-(methylsulfonyl)phenyl) imidazo[1,2-a]pyridine] | > 1000 | > 20 | –
29 | COc1cc2ncc(-c3ccc(S(N)(=O)=O)cc3)n2cc1S(=O)(=O)C(C)(C)C [Example 152, 4-(6-(tert-butylsulfonyl)-7-methoxyimidazo[1,2-a]pyridin-3-yl)benzenesulfonamide] | > 1000 | > 20 | –
30 | COc1cc2ncc(-c3cccc(S(N)(=O)=O)c3)n2cc1S(=O)(=O)C(C)(C)C [Example 153, 3-(6-(tert-butylsulfonyl)-7-methoxyimidazo[1,2-a]pyridin-3-yl)benzenesulfonamide] | > 1000 | > 20 | –
31 | COc1cc2ncc(-c3cc(F)c(N)nc3F)n2cc1S(=O)(=O)C(C)(C)C(F)F [Example 154, 5-(6-((1,1-difluoro-2-methylpropan-2-yl)sulfonyl)-7-methoxyimidazo[1,2-a]pyridin-3-yl)-3,6-difluoropyridin-2-amine] | 50 to 250 | – | 2.5 to 20
